{"source": "patent US10881110B2", "about": "“Herbicidal compositions comprising isoxazolo[5,4-b]pyridines” (BASF SE, priority 2014, dated 2021)", "assay_in_all_cases": "greenhouse post-emergence herbicidal test", "key": {"MATCH": {"test_system": "MATCH", "assay_type": "in vivo, Matricaria recutita", "set-up": "key to herbicidal activity against MATCH found: rating on a scale from 0 to 100", "conditions": "post emergence", "method_in_brief": "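Seeds sown per species in loamy sand with roughly 4.6% humus; seedlings raised to 1 to 15 cm, then treated with water-borne spray of a 10% by weight emulsion concentrate. Response assessed on day 20 from 0 (normal growth) to 100 (destroyed).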"}, "POLAV": {"test_system": "POLAV", "assay_type": "in vivo, Polygonum aviculare", "set-up": "key: rating on a scale from 0 to 100", "procedure": "The culture containers used were plastic pots containing medium loamy sand with approximately 4.6% of humus and 69.9% sand as substrate. The seeds of the test plants were sown separately for each species.\nFor the post-emergence treatment, the test plants were grown to a plant height of from 1 to 15 cm, depending on the plant habit, and only then treated with the active compounds which had been suspended or emulsified in water. To this end, the test plants were either sown directly, and grown in the same containers, or they were first grown separately as seedlings and transplanted into the test containers a few days prior to treatment.\nDepending on the species, the plants were kept at 10-25° C. and 20-35° C., respectively.\nThe test period extended over 1 to 3 weeks. During this time, the plants were tended and their response to the individual treatments was evaluated 20 days after treatment except mentioned otherwise.\nEvaluation was carried out using a scale from 0 to 100. 100 means no emergence of the plants, or complete destruction of at least the above-ground parts, and 0 means no damage or normal course of growth.\nThe respective stated components A and B, and, if appropriate, C, were formulated as a 10% by weight strength emulsion concentrate and, with addition of the amount of solvent system, introduced into the spray liquor used for applying the active compound. In the examples, the solvent used was water.\nIn the examples below, using the method of S. R. Colby (1967) “Calculating synergistic and antagonistic responses of herbicide combinations”, Weeds 15, p. 22 ff., the value E, which is expected if the activity of the individual active compounds is only additive, was calculated. E=X+Y−(X·Y/100)"}, "IPOHE": {"test_system": "IPOHE", "assay_type": "in vivo, Ipomoea hederacea", "set-up": "key to herbicidal activity against IPOHE found: rating on a scale from 0 to 100", "conditions": "post emergence; for pest or weed control at 31.25 g/ha: 31.25 g/ha a.i.", "method_in_brief": "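Post-emergence greenhouse test: plants in loamy sand, sprayed at 1–15 cm height with aqueous spray liquor from 10% emulsion concentrates, kept at 10-25 °C or 20-35 °C by species. Damage scored 0–100 (100 = complete destruction), usually 20 days after treatment. Expected additive effect E from Colby: E=X+Y−(X·Y/100).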"}, "[1]": {"conditions": "6 days after treatment, g/ha a.i.: I.1 31.25, naptalam 50, mixture 31.25+50"}, "[2]": {"conditions": "6 days after treatment, g/ha a.i.: I.1 62.5, naptalam 50, mixture 62.5+50"}, "[3]": {"conditions": "6 days after treatment, g/ha a.i.: I.1 62.5, B.96 140, mixture 62.5+140"}, "[4]": {"conditions": "a.i. g/ha: I.1 15.6, B.190 62.5, 20 days after treatment"}}, "note": "Read-outs that look alike come from different tables or passages of the source.", "data": [{"smiles": "O=C(O)c1cc(C2CC2)nc2onc(C3CC3)c12", "note": "[I.1]", "values": [{"measurement": "pest or weed control at 31.25 g/ha", "setting": "MATCH; Matricaria chamomilla, post-emergence, 480 h, single active, 31.25 g/ha a.i., read-out: herbicidal activity against MATCH found", "value": 15, "unit": "%"}, {"measurement": "pest or weed control at 62.5 g/ha", "setting": "MATCH; Matricaria chamomilla, post-emergence, 480 h, single active, 62.5 g/ha a.i., read-out: herbicidal activity against MATCH found", "value": 60, "unit": "%"}, {"measurement": "herbicidal activity against MATCH found", "setting": "MATCH; [1]", "value": 0}, {"measurement": "herbicidal activity against MATCH found", "setting": "MATCH; 6 days after treatment, g/ha a.i.: I.1 31.25, naptalam 100, mixture 31.25+100", "value": 0}, {"measurement": "herbicidal activity against MATCH found", "setting": "MATCH; [2]", "value": 10}, {"measurement": "herbicidal activity against MATCH found", "setting": "MATCH; I.1 15.62 g/ha, B.95 1 g/ha a.i.", "value": 10}, {"measurement": "herbicidal activity against MATCH found", "setting": "MATCH; I.1 31.25 g/ha, B.95 1 g/ha a.i.", "value": 10}, {"measurement": "herbicidal activity against MATCH found", "setting": "MATCH; I.1 31.25 g/ha, B.95 2 g/ha a.i.", "value": 10}, {"measurement": "herbicidal activity against MATCH found", "setting": "MATCH; I.1 62.5 g/ha, B.167 62.5 g/ha a.i.", "value": 0}, {"measurement": "herbicidal activity against MATCH found", "setting": "MATCH; I.1 62.5 g/ha, B.167 125 g/ha a.i.", "value": 0}, {"measurement": "herbicidal activity against MATCH found", "setting": "MATCH; I.1 62.5 g/ha, B.95 2 g/ha a.i.", "value": 65}, {"measurement": "herbicidal activity against MATCH found", "setting": "MATCH; a.i. g/ha: I.1 20.8, B.192 62.5, 20 days after treatment", "value": 60, "unit": "%"}, {"measurement": "herbicidal activity against MATCH found", "setting": "MATCH; a.i. g/ha: I.1 20.8, B.79 25, 20 days after treatment", "value": 60, "unit": "%"}, {"measurement": "herbicidal activity against MATCH found", "setting": "MATCH; a.i. g/ha: I.1 31.25, B.67 125, 20 days after treatment", "value": 30, "unit": "%"}, {"measurement": "herbicidal activity against MATCH found", "setting": "MATCH; a.i. g/ha: I.1 31.25, B.67 125, 20 days after treatment, sub-table r36-r43", "value": 30, "unit": "%"}, {"measurement": "herbicidal activity against MATCH found", "setting": "MATCH; a.i. g/ha: I.1 31.25, B.69 25, 20 days after treatment", "value": 30, "unit": "%"}, {"measurement": "herbicidal activity against MATCH found", "setting": "MATCH; a.i. g/ha: I.1 62.5, B.191 225, 20 days after treatment", "value": 30, "unit": "%"}, {"measurement": "herbicidal activity against MATCH found", "setting": "MATCH; a.i. g/ha: I.1 62.5, B.67 125, 20 days after treatment", "value": 0, "unit": "%"}, {"measurement": "herbicidal activity against MATCH found", "setting": "MATCH; application rate a.i.: I.1 20.8 g/ha, B.107 (topramezone) 6 g/ha, alone or as mixture (composition 1.107)", "value": 60}, {"measurement": "herbicidal activity against MATCH found", "setting": "MATCH; application rate a.i.: I.1 31.25 g/ha, B.87 (carfentrazone-ethyl) 1.75 g/ha, alone or as mixture (composition 1.87)", "value": 35}, {"measurement": "herbicidal activity against MATCH found", "setting": "MATCH; application rate a.i.: I.1 62.5 g/ha, B.84 (paraquat-dichloride) 17.5 g/ha, alone or as mixture (composition 1.84)", "value": 80}, {"measurement": "herbicidal activity against MATCH found", "setting": "MATCH; application rate a.i.: I.1 62.5 g/ha, B.87 (carfentrazone-ethyl) 1.75 g/ha, alone or as mixture (composition 1.87)", "value": 80}, {"measurement": "herbicidal activity against MATCH found", "setting": "MATCH; applied alone at 31.25 g/ha a.i.", "value": 25}, {"measurement": "herbicidal activity against MATCH found", "setting": "MATCH; g/ha a.i.: I.1 31.25, B.24 2, mixture 31.25+2", "value": 25}, {"measurement": "herbicidal activity against MATCH found", "setting": "MATCH; g/ha a.i.: I.1 125, B.24 2, mixture 125+2", "value": 75}, {"measurement": "herbicidal activity against MATCH found", "setting": "MATCH; g/ha a.i.: I.1 125, B.63 0.5, mixture 125+0.5", "value": 75}, {"measurement": "herbicidal activity against POLAV found", "setting": "POLAV; 62.5 g/ha a.i.", "value": 65}, {"measurement": "herbicidal activity against POLAV found", "setting": "POLAV; 125 g/ha a.i.", "value": 65}, {"measurement": "herbicidal activity against POLAV found", "setting": "POLAV; [1]", "value": 70}, {"measurement": "herbicidal activity against POLAV found", "setting": "POLAV; 6 days after treatment, g/ha a.i.: I.1 31.25, naptalam 200, mixture 31.25+200", "value": 70}, {"measurement": "herbicidal activity against POLAV found", "setting": "POLAV; 6 days after treatment, g/ha a.i.: I.1 62.5, B.96 70, mixture 62.5+70", "value": 70}, {"measurement": "herbicidal activity against POLAV found", "setting": "POLAV; [3]", "value": 70}, {"measurement": "herbicidal activity against POLAV found", "setting": "POLAV; [2]", "value": 70}, {"measurement": "herbicidal activity against POLAV found", "setting": "POLAV; 6 days after treatment, g/ha a.i.: I.1 62.5, naptalam 100, mixture 62.5+100", "value": 70}, {"measurement": "herbicidal activity against POLAV found", "setting": "POLAV; 6 days after treatment, g/ha a.i.: I.1 62.5, naptalam 200, mixture 62.5+200", "value": 70}, {"measurement": "herbicidal activity against POLAV found", "setting": "POLAV; [4]", "value": 45, "unit": "%"}, {"measurement": "herbicidal activity against POLAV found", "setting": "POLAV; a.i. g/ha: I.1 31.25, bentazon Na 125, 20 days after treatment", "value": 80, "unit": "%"}, {"measurement": "pest or weed control at 31.25 g/ha", "setting": "IPOHE; Ipomoea hederacea, post-emergence, 480 h, read-out: herbicidal activity against IPOHE found", "value": 75, "unit": "%"}, {"measurement": "pest or weed control at 62.5 g/ha", "setting": "IPOHE; Ipomoea hederacea, post-emergence, 480 h, 62.5 g/ha a.i., read-out: herbicidal activity against IPOHE found", "value": 90, "unit": "%"}, {"measurement": "pest or weed control at 31.25 g/ha", "setting": "IPOHE; Ipomoea hederacea, post-emergence, 480 h, single active, read-out: herbicidal activity against IPOHE found", "value": 55, "unit": "%"}, {"measurement": "pest or weed control at 125 g/ha", "setting": "IPOHE; Ipomoea hederacea, post-emergence, 480 h, single active, 125 g/ha a.i., read-out: herbicidal activity against IPOHE found", "value": 95, "unit": "%"}, {"measurement": "herbicidal activity against IPOHE found", "setting": "IPOHE; 6 days after treatment, g/ha a.i.: I.1 31.25, B.96 35, mixture 31.25+35", "value": 70}, {"measurement": "herbicidal activity against IPOHE found", "setting": "IPOHE; 6 days after treatment, g/ha a.i.: I.1 31.25, B.96 70, mixture 31.25+70", "value": 70}, {"measurement": "herbicidal activity against IPOHE found", "setting": "IPOHE; 6 days after treatment, g/ha a.i.: I.1 31.25, B.96 140, mixture 31.25+140", "value": 70}, {"measurement": "herbicidal activity against IPOHE found", "setting": "IPOHE; [3]", "value": 80}, {"measurement": "herbicidal activity against IPOHE found", "setting": "IPOHE; I.1 15.6 g/ha, B.103 7.5 g/ha a.i.", "value": 20}, {"measurement": "herbicidal activity against IPOHE found", "setting": "IPOHE; I.1 15.62 g/ha, B.89 25 g/ha a.i.", "value": 25}, {"measurement": "herbicidal activity against IPOHE found", "setting": "IPOHE; I.1 31.25 g/ha, B.103 15 g/ha a.i.", "value": 70}, {"measurement": "herbicidal activity against IPOHE found", "setting": "IPOHE; I.1 31.25 g/ha, B.89 25 g/ha a.i.", "value": 25}, {"measurement": "herbicidal activity against IPOHE found", "setting": "IPOHE; I.1 62.5 g/ha, B.57 1 g/ha a.i.", "value": 30}, {"measurement": "herbicidal activity against IPOHE found", "setting": "IPOHE; I.1 62.5 g/ha, B.89 12.5 g/ha a.i.", "value": 30}, {"measurement": "herbicidal activity against IPOHE found", "setting": "IPOHE; I.1 62.5 g/ha, B.89 25 g/ha a.i.", "value": 30}, {"measurement": "herbicidal activity against IPOHE found", "setting": "IPOHE; [4]", "value": 50, "unit": "%"}, {"measurement": "herbicidal activity against IPOHE found", "setting": "IPOHE; a.i. g/ha: I.1 31.25, B.190 62.5, 20 days after treatment", "value": 65, "unit": "%"}, {"measurement": "herbicidal activity against IPOHE found", "setting": "IPOHE; application rate a.i.: I.1 62.5 g/ha, B.40 (imazethapyr) 7.5 g/ha, alone or as mixture (composition 1.40)", "value": 95}, {"measurement": "herbicidal activity against IPOHE found", "setting": "IPOHE; g/ha a.i.: I.1 31.25, B.20 2, mixture 31.25+2", "value": 25}, {"measurement": "herbicidal activity against IPOHE found", "setting": "IPOHE; g/ha a.i.: I.1 31.25, B.24 1, mixture 31.25+1", "value": 25}]}]}
